Experimental findings from ChEMBL document CHEMBL5346862, “Discovery of the thieno[2,3-d]pyrimidine-2,4-dione derivative 21a: A potent and orally bioavailable gonadotropin-releasing hormone receptor antagonist” (Eur J Med Chem, 2022) are described below.

Series [1] can be described thus: Clearance in Sprague-Dawley rat at 1 mg/kg, iv measured for 24 hrs by LC/MS analysis. As to conditions: in vivo. In kind it is ADME, organism-based.
The nature of series [2]: Oral bioavailability in Sprague-Dawley rat at 12 mg/kg measured for 24 hrs by LC/MS analysis. In kind it is ADME, organism-based. The note with it: in vivo.
A short description of series [3]: Cmax in Sprague-Dawley rat at 12 mg/kg, po measured for 24 hrs by LC/MS analysis. In kind it is ADME, organism-based. More on the design: dose 12 mg/kg, time 24 hrs, route po. As to conditions: in vivo.
Series [4] in a line: Half-life in Sprague-Dawley rat at 1 mg/kg, iv measured for 24 hrs by LC/MS analysis. In kind it is ADME, organism-based. The note with it: in vivo.
A short description of series [5]: AUC(last) in Sprague-Dawley rat at 1 mg/kg, iv measured for 24 hrs by LC/MS analysis. In kind it is ADME, organism-based. More on the design: dose 1 mg/kg, time 24 hrs, route iv. The note with it: in vivo.
Series [6] can be described thus: Tmax in Sprague-Dawley rat at 12 mg/kg, po measured for 24 hrs by LC/MS analysis. The class given is ADME, organism-based. The note with it: in vivo.
The nature of series [7]: Half-life in Sprague-Dawley rat at 12 mg/kg, po measured for 24 hrs by LC/MS analysis. The class given is ADME, organism-based. The note with it: in vivo.
Series [8] in a line: Apparent permeability across basolateral to apical side in human Caco-2 cells incubated for 180 mins by LC/MS/MS analysis. The class given is ADME, cell-based. As to conditions: for Papp B→A at 3 h: Caco-2. Background: Passage across Caco-2 layers is used to estimate intestinal permeability.
Series [9] can be described thus: Apparent permeability across apical to basolateral side in human Caco-2 cells incubated for 180 mins by LC/MS/MS analysis. The class given is ADME, cell-based. As to conditions: for Papp A→B at 3 h: Caco-2.
Series [10] can be described thus: Intrinsic clearance in rat liver microsomes incubated for 15 mins in presence of NADPH by LC-MS analysis. In kind it is ADME, Microsome. The note with it: read-out: CLH. A general note: Liver microsomes are a subcellular fraction often used to study metabolism.
Series [11] is described as follows: AUC(last) in Sprague-Dawley rat at 12 mg/kg, po measured for 24 hrs by LC/MS analysis. The class given is ADME, organism-based. More on the design: time 24 hrs, dose 12 mg/kg, route po. As to conditions: in vivo.
Series [12] can be described thus: Cmax in Sprague-Dawley rat at 1 mg/kg, iv measured for 24 hrs by LC/MS analysis. In kind it is ADME, organism-based. Details: time 24 hrs, dose 1 mg/kg, route iv. The note with it: in vivo.
A short description of series [13]: Intrinsic clearance in human liver microsomes incubated for 15 mins in presence of NADPH by LC-MS analysis. In kind it is ADME, Microsome. The note with it: read-out: CLH.
The nature of series [14]: Drug uptake in Sprague-Dawley rat hypothalamus and pituitary at 12 mg/kg, po measured after 4 hrs by LC-MS/MS analysis. In kind it is ADME, organism-based, Hypothalamus/Pituitary gland. As to conditions: read-out: Drug uptake.
Series [15] in a line: Drug uptake in Sprague-Dawley rat heart at 12 mg/kg, po measured after 1 hr by LC-MS/MS analysis. As to conditions: read-out: Drug uptake. In kind it is ADME, organism-based.
A short description of series [16]: Drug uptake in Sprague-Dawley rat hypothalamus and pituitary at 12 mg/kg, po measured after 1 hr by LC-MS/MS analysis. In kind it is ADME, organism-based, Hypothalamus/Pituitary gland. As to conditions: read-out: Drug uptake.
Series [17] is described as follows: Drug uptake in Sprague-Dawley rat hypothalamus and pituitary at 12 mg/kg, po measured after 12 hrs by LC-MS/MS analysis. As to conditions: read-out: Drug uptake. The class given is ADME, organism-based, Hypothalamus/Pituitary gland.
Series [18] can be described thus: Lipophilicity, log D of the compound at pH 7.4. The class given is physicochemical. The note with it: buffer.

As to `COCCN(C)Cc1c(-c2ccc(NC(=O)NOC)cc2)sc2c1c(=O)n(-c1ccc(OC)nn1)c(=O)n2Cc1c(F)cccc1F`, in series [1], the clearance was 38.7 mL/min/kg. Besides, the bioavailability in [2] came out at 10.9%. The Cmax in [3] was found to be 329 nM; in [12] it was 1230 nM. Further, the half-life is 2.6 h in series [4] and 4.33 h in series [7]. The AUC(0-t) at 24 h was 0.689 µM·h in series [5] and 0.904 µM·h in series [11]. Moreover, in series [6], the time of peak concentration (Tmax) was 0.31 h. For the same molecule, the basolateral-to-apical permeability (Papp B→A) at 3 h in series [8] was 42.2 ×10⁻⁶ cm/s. In addition, in series [9], the apparent permeability from apical to basolateral (Papp A→B) at 3 h is 0.031 ×10⁻⁶ cm/s. Also, the results for the CLint scaled at […] in series [10] and in [13] were 15.8 mL/min/kg and under 6.75 mL/min/kg, respectively.
For `CONC(=O)Nc1ccc(-c2sc3c(c2CN(C)C)c(=O)n(-c2ccc(OC(F)F)nn2)c(=O)n3Cc2c(F)cccc2F)cc1`, the Papp B→A at 3 h in series [8] worked out at 15.1 ×10⁻⁶ cm/s. Moreover, the apical-to-basolateral permeability (Papp A→B) at 3 h in [9] worked out at 0.019 ×10⁻⁶ cm/s. Also, the CLint scaled at […] in [10] is 16.6 mL/min/kg; in series [13] it was under 6.75 mL/min/kg.
With `CNc1ccc(-n2c(=O)c3c(CN(C)C)c(-c4ccc(NC(=O)NOC)cc4)sc3n(Cc3c(F)cccc3F)c2=O)nn1`, the Papp B→A at 3 h in series [8] amounted to 0.5 ×10⁻⁶ cm/s. In series [9], the Papp A→B at 3 h came out at 0.05 ×10⁻⁶ cm/s. Moreover, the CLint scaled at […] is 34.9 mL/min/kg in series [10] and under 6.75 mL/min/kg in series [13].
On to `COc1ccc(-n2c(=O)c3c(CN(C)C)c(-c4ccc(NC(=O)NOCC(F)F)cc4)sc3n(Cc3c(F)cccc3F)c2=O)nn1`, for which, in series [8], the basolateral-to-apical permeability (Papp B→A) at 3 h is 15.7 ×10⁻⁶ cm/s. Moreover, the apparent permeability from apical to basolateral (Papp A→B) at 3 h in series [9] amounted to 0.01 ×10⁻⁶ cm/s. For the same molecule, the CLint scaled at […] in series [10] was found to be 45.4 mL/min/kg; in [13] it was 7.38 mL/min/kg.
The matching figures for `CONC(=O)Nc1ccc(-c2sc3c(c2CN(C)C)c(=O)n(-c2cccc(OC)c2F)c(=O)n3Cc2c(F)cccc2F)cc1`: 21.1 ×10⁻⁶ cm/s, 0.051 ×10⁻⁶ cm/s, 211 mL/min/kg and 52 mL/min/kg.
Molecule `CONC(=O)Nc1ccc(-c2sc3c(c2CN(C)CCOC(F)(F)F)c(=O)n(-c2ccc(OC)nn2)c(=O)n3Cc2c(F)cccc2F)cc1` gave a clearance in series [1] of 17.5 mL/min/kg. In series [2], this molecule yielded a bioavailability of 44.7%. Further, the Cmax in series [3] was found to be 920 nM; in [12], 3920 nM. In addition, the half-life in series [4] was 2.79 h; in series [7], 4.86 h. In addition, the AUC(0-t) at 24 h was 1.37 µM·h in series [5] and 7.37 µM·h in series [11]. The Tmax in series [6] came out at 1.13 h. For the same molecule, the Papp A→B at 3 h in [9] came out at 0.984 ×10⁻⁶ cm/s. The CLint scaled at […] in [10] worked out at 37.1 mL/min/kg; in series [13], 14.2 mL/min/kg.
With `CONC(=O)Nc1ccc(-c2sc3c(c2CN(C)C)c(=O)n(-c2ccc(OC)nn2)c(=O)n3Cc2c(F)cccc2C(F)(F)F)cc1`, in series [8], the apparent permeability from basolateral to apical (Papp B→A) at 3 h came out at 4.58 ×10⁻⁶ cm/s. Also, the Papp A→B at 3 h in [9] is 0.011 ×10⁻⁶ cm/s. Moreover, the values for the CLint scaled at […] in [10] and in series [13] were under 13.5 mL/min/kg and under 6.75 mL/min/kg, respectively.
Consider `COc1ccc(-n2c(=O)c3c(CN(C)C)c(-c4ccc(NC(=O)NOCC(F)(F)F)cc4)sc3n(Cc3c(F)cccc3F)c2=O)nn1`, for which, in [8], the Papp B→A at 3 h is 17.2 ×10⁻⁶ cm/s. The Papp A→B at 3 h in [9] stood at 0.009 ×10⁻⁶ cm/s. In addition, the CLint scaled at […] in [10] is 38.9 mL/min/kg; in series [13] it was under 6.75 mL/min/kg.
Take `CCc1ccc(-n2c(=O)c3c(CN(C)C)c(-c4ccc(NC(=O)NOC)cc4)sc3n(Cc3c(F)cccc3F)c2=O)nn1`: the apparent permeability from basolateral to apical (Papp B→A) at 3 h in series [8] is 10.2 ×10⁻⁶ cm/s. Also, the apparent permeability from apical to basolateral (Papp A→B) at 3 h in series [9] came to 0.013 ×10⁻⁶ cm/s. Further, the CLint scaled at […] stood at 31.3 mL/min/kg in series [10] and 17.6 mL/min/kg in series [13].
Turning to `C[C@H]1O[C@@H](O[C@H]2[C@@H](O)C[C@H](O[C@H]3[C@@H](O)C[C@H](O[C@H]4CC[C@@]5(C)[C@H](CC[C@@H]6[C@@H]5C[C@@H](O)[C@]5(C)[C@@H](C7=CC(=O)OC7)CC[C@]65O)C4)O[C@@H]3C)O[C@@H]2C)C[C@H](O)[C@@H]1O` [DIGOXIN], in [8], the apparent permeability from basolateral to apical (Papp B→A) at 3 h was 12.8 ×10⁻⁶ cm/s. The Papp A→B at 3 h in series [9] came to 0.013 ×10⁻⁶ cm/s.
Molecule `CONC(=O)Nc1ccc(-c2sc3c(c2CN(C)C)c(=O)n(-c2ccc(OC)nn2)c(=O)n3Cc2c(F)cccc2F)cc1` [RELUGOLIX] gave a clearance in [1] of 78.3 mL/min/kg. The molecule also returned a bioavailability in [2] of 5.7%. Besides, the Cmax in [3] amounted to 35.3 nM; in series [12] it was 544 nM. Also, the concentration at 4 h in series [14] worked out at 9.2 ng/g. The half-life is 3.64 h in series [4] and 3.88 h in series [7]. In addition, the values for the AUC(0-t) at 24 h in series [5] and in series [11] were 0.34 µM·h and 0.234 µM·h, respectively. Moreover, the concentration at 1 h in series [15] stood at 429 ng/g; in [16], 4.46 ng/g. Also, the concentration at 12 h in series [17] turned out to be 3.2 ng/g. Also, in [18], the logD turned out to be 1.24. In addition, the Tmax in series [6] was determined as 0.33 h. Further, the Papp in [8] (caco-2, 3 h) was 13.84 10^-6 cm/s; in [9] (caco-2, 3 h), 0.007 10^-6 cm/s. The values for the CLint scaled at […] in series [10] and in [13] were 29.5 mL/min/kg and 5.22 mL/min/kg, respectively.

In general, clearance refers to the rate of elimination divided by the concentration. Lower therefore signals a low capacity for elimination. By bioavailability is commonly meant dose-corrected exposure relative to a reference, in per cent. A low value points to poor availability. As usually defined, the Cmax is the peak of the concentration-time curve. By half-life is commonly meant how long it takes for the measured level to halve. The term AUC(0-t) denotes exposure summed from dosing to a finite time, without extrapolation to infinity. Read a low AUC(0-t) as less exposure. Broadly, the Tmax is the time from dosing to the highest level. One may read the Papp B→A as the apparent permeability from the basolateral to the apical side of a cell layer. Broadly, the Papp A→B is how fast a substance crosses the layer from the apical side. For orientation: logD means the decadic logarithm of the distribution of all forms, ionised or not, between an organic phase and buffer at a given pH. Read a high logD as higher lipophilicity.
